System: T-47D tumors
Experiment: Inhibition of E1-stimulated T-47D tumor growth in nude OVX mice (xenograft)
Type: in vivo, mouse
Protocol: Female OVX BALB/c athymic nude mice weighing approximately 20 g were obtained from Charles-River, Inc. (St-Constant, Qc., Canada). The animals were housed 5 per cage. […] T-47D tumor growth was stimulated using 0.1 μg of E1 s.c. per mouse per day for 15 days. From day 16, animals with tumors were randomized in function of tumor volume and separated into three groups. Group 1 (control mice) was treated s.c. with 100 μL of vehicle alone (8% EtOH/92% PG) per mouse per day. Group 2 (E1 0.1 μg) was treated with E1 (0.1 μg/day, s.c. per mouse) during 32 days. Group 3 (E1 0.1 μg+Compound V 250 μg) was treated with E1 (0.1 μg/day) and Compound V (250 μg/day) per mouse in a combined s.c. injection for 32 days. The mice were weighed at start and volumes of tumors were determined by external caliper twice a week and the greatest longitudinal diameter (length) and the greatest transverse diameter (width) were determined. Tumor volume based on caliper measurements was calculated by the modified ellipsoidal formula: Tumor volume=½(length×width^2) (Jensen M M, Jorgensen J T, Binderup T, Kjaer A. Tumor volume in subcutaneous mouse xenografts measured by microCT is more accurate and reproducible than determined by 18F-FDG-microPET or external caliper. BMC Med Imaging 2008; 8:16). At the end of the studies the mice were terminally anaesthetized, final body weights and tumor sizes were determined. Uteri and vagina were removed, excised of fat and weighed (Day J M, Foster P A, Tutill H J, Parsons M F, Newman S P, Chander S K, et al. 17beta-hydroxysteroid dehydrogenase type 1, and not type 12, is a target for endocrine therapy of hormone-dependent breast cancer. Int J Cancer 2008; 122:1931-40; Husen B, Huhtinen K, Poutanen M, Kangas L, Messinger J, Thole H. Evaluation of inhibitors for 17beta-hydroxysteroid dehydrogenase type 1 in vivo in immunodeficient mice inoculated with MCF-7 cells stably expressing the recombinant human enzyme. Mol Cell Endocrinol 2006; 248:109-13; Husen B, Huhtinen K, Saloniemi T, Messinger J, Thole H H, Poutanen M: Human hydroxysteroid (17-beta) dehydrogenase 1 expression enhances estrogen sensitivity of MCF-7 breast cancer cell xenografts. Endocrinology 2006; 147:5333-9; Messinger J, Hirvela L, Husen B, Kangas L, Koskimies P, Pentikainen O, et al. New inhibitors of 17beta-hydroxysteroid dehydrogenase type 1. Mol Cell Endocrinol 2006; 248:192-8).

With C[C@]12CC[C@@H]3c4ccc(CCBr)cc4CC[C@H]3[C@@H]1C[C@H](Cc1cccc(C(N)=O)c1)[C@@H]2O [Compound V, 3-{[(16β,17β)-3-(2-bromoethyl)-17-hydroxyestra-1(10),2,4-trien-16-yl]methyl}benzamide] the toxicity (250 μg/day/mouse (s.c.), 32 days) was “no apparent toxicity”, the “effect on mouse weight” value (32-day treatment period) was “no effect” and the “growth of E1-stimulated tumors inhibited (%)” value (E1 0.1 μg/day + Compound V 250 μg/day s.c., 32 days) was 74%. The “effect on E1-stimulated uterine and vaginal weight” value (E1 0.1 μg/day + Compound V 250 μg/day, 32 days) was “had no effect on the E1-stimulated uterine and vaginal weight increase”.

From patent publication US11072632B2, “Inhibitors of 17β-HSD1, 17β-HSD3 and 17β-HSD10” (UNIVERSITÉ LAVAL, priority 2011, dated 2021)
